Reference: PubChem BioAssay (NCI)
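Test compounds were applied to cells in 96-well plates for 48 hours at 5 doses. TGI is the concentration that stops growth completely.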

How the values were obtained:
Assay in all cases: growth of human tumour cells (NCI), 48 h
HCC-2998 colon = test system: HCC-2998 colon
SF-295 CNS = test system: SF-295 CNS
PC-3 prostate = test system: PC-3 prostate
CCRF-CEM leukemia = test system: CCRF-CEM leukemia
NCI/ADR-RES ovarian = test system: NCI/ADR-RES ovarian
HS 578T breast = test system: HS 578T breast
RPMI-8226 leukemia = test system: RPMI-8226 leukemia
HCT-116 colon = test system: HCT-116 colon
SNB-75 CNS = test system: SNB-75 CNS
MDA-N = test system: MDA-N
TK-10 renal = test system: TK-10 renal
SF-539 CNS = test system: SF-539 CNS
COLO 205 colon = test system: COLO 205 colon
A549 NSCLC = test system: A549 NSCLC
UACC-62 melanoma = test system: UACC-62 melanoma
A498 renal = test system: A498 renal
SW-620 colon = test system: SW-620 colon
SK-MEL-5 melanoma = test system: SK-MEL-5 melanoma
HOP-92 NSCLC = test system: HOP-92 NSCLC
SK-OV-3 ovarian = test system: SK-OV-3 ovarian
HOP-62 NSCLC = test system: HOP-62 NSCLC
MCF7 breast = test system: MCF7 breast
SF-268 CNS = test system: SF-268 CNS
OVCAR-3 ovarian = test system: OVCAR-3 ovarian
MDA-MB-435 = test system: MDA-MB-435
SNB-19 CNS = test system: SNB-19 CNS
UO-31 renal = test system: UO-31 renal
OVCAR-4 ovarian = test system: OVCAR-4 ovarian
RXF 393 renal = test system: RXF 393 renal
U251 CNS = test system: U251 CNS
KM12 colon = test system: KM12 colon
M14 melanoma = test system: M14 melanoma
MOLT-4 leukemia = test system: MOLT-4 leukemia
786-0 renal = test system: 786-0 renal
OVCAR-5 ovarian = test system: OVCAR-5 ovarian
DU-145 prostate = test system: DU-145 prostate
K-562 leukemia = test system: K-562 leukemia
SK-MEL-28 melanoma = test system: SK-MEL-28 melanoma
MDA-MB-231 breast = test system: MDA-MB-231 breast
LOX IMVI melanoma = test system: LOX IMVI melanoma
CAKI-1 renal = test system: CAKI-1 renal
SN12C renal = test system: SN12C renal
T-47D breast = test system: T-47D breast
HCT-15 colon = test system: HCT-15 colon
ACHN renal = test system: ACHN renal
UACC-257 melanoma = test system: UACC-257 melanoma
EKVX NSCLC = test system: EKVX NSCLC
NCI-H226 lung = test system: NCI-H226 lung
SK-MEL-2 melanoma = test system: SK-MEL-2 melanoma
NCI-H522 lung = test system: NCI-H522 lung
BT-549 breast = test system: BT-549 breast
HT29 colon = test system: HT29 colon
IGROV1 ovarian = test system: IGROV1 ovarian
OVCAR-8 ovarian = test system: OVCAR-8 ovarian
MALME-3M melanoma = test system: MALME-3M melanoma
HL-60(TB) leukemia = test system: HL-60(TB) leukemia
NCI-H23 lung = test system: NCI-H23 lung
NCI-H460 lung = test system: NCI-H460 lung
SR leukemia = test system: SR leukemia

For CCS(=O)C(=O)N(O)c1ccc(Cl)cc1 (stereo not given), the TGI (HCC-2998 colon) was greater than 100 µM, the TGI (SF-295 CNS) was greater than 100 µM and the TGI (PC-3 prostate) was greater than 100 µM. It also gave a TGI (CCRF-CEM leukemia) of 63.2 µM, a TGI (NCI/ADR-RES ovarian) of 81.4 µM and a TGI (HS 578T breast) greater than 100 µM. It also gave a TGI (RPMI-8226 leukemia) of 20.4 µM, a TGI (HCT-116 colon) greater than 100 µM and a TGI (SNB-75 CNS) greater than 100 µM. The TGI (MDA-N) was 41.4 µM, the TGI (TK-10 renal) was greater than 100 µM and the TGI (SF-539 CNS) was 52.8 µM. For the same molecule, the TGI (COLO 205 colon) was greater than 100 µM, the TGI (A549 NSCLC) was greater than 100 µM and the TGI (UACC-62 melanoma) was 22.9 µM. For the same molecule, the TGI (A498 renal) was greater than 100 µM, the TGI (SW-620 colon) was 46 µM and the TGI (SK-MEL-5 melanoma) was 74.1 µM. For the same molecule, the TGI (HOP-92 NSCLC) was greater than 100 µM, the TGI (SK-OV-3 ovarian) was greater than 100 µM and the TGI (HOP-62 NSCLC) was greater than 100 µM. For the same molecule, the TGI (MCF7 breast) was 50.9 µM, the TGI (SF-268 CNS) was 55.4 µM and the TGI (OVCAR-3 ovarian) was greater than 100 µM. It also gave a TGI (MDA-MB-435) of 30 µM, a TGI (SNB-19 CNS) greater than 100 µM and a TGI (UO-31 renal) of 46.7 µM. The TGI (OVCAR-4 ovarian) was greater than 100 µM, the TGI (RXF 393 renal) was 41.6 µM and the TGI (U251 CNS) was 44.6 µM. It also gave a TGI (KM12 colon) of 47.2 µM, a TGI (M14 melanoma) of 35.1 µM and a TGI (MOLT-4 leukemia) of 25 µM. It also gave a TGI (786-0 renal) of 64.3 µM, a TGI (OVCAR-5 ovarian) greater than 100 µM and a TGI (DU-145 prostate) greater than 100 µM. For the same molecule, the TGI (K-562 leukemia) was 39.9 µM, the TGI (SK-MEL-28 melanoma) was 35.6 µM and the TGI (MDA-MB-231 breast) was greater than 100 µM. For the same molecule, the TGI (LOX IMVI melanoma) was 53.1 µM, the TGI (CAKI-1 renal) was 38.5 µM and the TGI (SN12C renal) was 43 µM. For the same molecule, the TGI (T-47D breast) was greater than 100 µM, the TGI (HCT-15 colon) was 68.5 µM and the TGI (ACHN renal) was 55 µM. The TGI (UACC-257 melanoma) was 75.8 µM, the TGI (EKVX NSCLC) was greater than 100 µM and the TGI (NCI-H226 lung) was greater than 100 µM. The TGI (SK-MEL-2 melanoma) was 56.7 µM.

For C=C1CC(C)(COc2ccc3c(C)c(Cl)c(=O)oc3c2)OC1=O (stereo not given), the TGI (NCI-H522 lung) was 2.1 µM, the TGI (BT-549 breast) was 2.81 µM and the TGI (HCC-2998 colon) was 4.27 µM. The TGI (SF-295 CNS) was 21.4 µM, the TGI (HT29 colon) was 3.48 µM and the TGI (PC-3 prostate) was 12 µM. The TGI (CCRF-CEM leukemia) was 2.54 µM, the TGI (NCI/ADR-RES ovarian) was 14.2 µM and the TGI (HS 578T breast) was greater than 100 µM. For the same molecule, the TGI (RPMI-8226 leukemia) was 1.83 µM, the TGI (HCT-116 colon) was 1.57 µM and the TGI (SNB-75 CNS) was 7.95 µM. It also gave a TGI (MDA-N) of 5.45 µM, a TGI (TK-10 renal) of 3.06 µM and a TGI (SF-539 CNS) of 15.6 µM. For the same molecule, the TGI (IGROV1 ovarian) was 3.94 µM, the TGI (COLO 205 colon) was 2.43 µM and the TGI (A549 NSCLC) was 25.5 µM. It also gave a TGI (OVCAR-8 ovarian) of 17.3 µM, a TGI (UACC-62 melanoma) of 3.01 µM and a TGI (SW-620 colon) of 3.15 µM. The TGI (SK-MEL-5 melanoma) was 4.2 µM, the TGI (HOP-92 NSCLC) was 4.41 µM and the TGI (SK-OV-3 ovarian) was 17.6 µM. For the same molecule, the TGI (HOP-62 NSCLC) was 34.5 µM, the TGI (MALME-3M melanoma) was 7.63 µM and the TGI (HL-60(TB) leukemia) was 1.21 µM. It also gave a TGI (MCF7 breast) of 3.15 µM, a TGI (SF-268 CNS) of 19.2 µM and a TGI (OVCAR-3 ovarian) of 16.9 µM. The TGI (MDA-MB-435) was 11.7 µM, the TGI (SNB-19 CNS) was 26.7 µM and the TGI (UO-31 renal) was 9.63 µM. It also gave a TGI (OVCAR-4 ovarian) of 10.4 µM, a TGI (NCI-H23 lung) of 4.2 µM and a TGI (U251 CNS) of 21 µM. For the same molecule, the TGI (KM12 colon) was 14.5 µM, the TGI (M14 melanoma) was 3.65 µM and the TGI (MOLT-4 leukemia) was 3.24 µM. The TGI (786-0 renal) was 4.65 µM, the TGI (NCI-H460 lung) was 21.2 µM and the TGI (OVCAR-5 ovarian) was 13.4 µM. The TGI (DU-145 prostate) was 6.8 µM, the TGI (K-562 leukemia) was 5.98 µM and the TGI (SK-MEL-28 melanoma) was 7.59 µM. It also gave a TGI (MDA-MB-231 breast) of 12.6 µM, a TGI (LOX IMVI melanoma) of 2.91 µM and a TGI (CAKI-1 renal) of 6.58 µM. For the same molecule, the TGI (SN12C renal) was 18.9 µM, the TGI (SR leukemia) was 6.47 µM and the TGI (HCT-15 colon) was 5.86 µM. For the same molecule, the TGI (ACHN renal) was 11.4 µM, the TGI (UACC-257 melanoma) was 3.48 µM and the TGI (EKVX NSCLC) was 20.8 µM. It also gave a TGI (NCI-H226 lung) of 17.8 µM and a TGI (SK-MEL-2 melanoma) of 4.47 µM.
